In PubChem BioAssay (NCI):
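Compound exposure: 48 hours, 5 concentrations, 96-well plates. GI50 marks 50% less growth. The concentration for full growth arrest is given as TGI.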

Columns and labels:
Test in all cases: DTP human tumour cell line panel, 48 h; in the data active means GI50 below about 0.43 µM; inactive means the rest
HOP-62 NSCLC = system: HOP-62 NSCLC
SW-620 colon = system: SW-620 colon
SNB-75 CNS = system: SNB-75 CNS
NCI-H460 lung = system: NCI-H460 lung
SNB-19 CNS = system: SNB-19 CNS
UACC-62 melanoma = system: UACC-62 melanoma
DU-145 prostate = system: DU-145 prostate
EKVX NSCLC = system: EKVX NSCLC
NCI-H23 lung = system: NCI-H23 lung
NCI/ADR-RES ovarian = system: NCI/ADR-RES ovarian
SK-MEL-28 melanoma = system: SK-MEL-28 melanoma
A549 NSCLC = system: A549 NSCLC
SF-295 CNS = system: SF-295 CNS
K-562 leukemia = system: K-562 leukemia
MCF7 breast = system: MCF7 breast
ACHN renal = system: ACHN renal
HCC-2998 colon = system: HCC-2998 colon
OVCAR-4 ovarian = system: OVCAR-4 ovarian
SF-539 CNS = system: SF-539 CNS
786-0 renal = system: 786-0 renal
OVCAR-3 ovarian = system: OVCAR-3 ovarian
MOLT-4 leukemia = system: MOLT-4 leukemia
A498 renal = system: A498 renal
MDA-MB-435 = system: MDA-MB-435
U251 CNS = system: U251 CNS
NCI-H226 lung = system: NCI-H226 lung

Cc1ccc(S(=O)(=O)c2nc(-c3ccc(F)cc3)oc2S(C)(=O)=O)cc1
inactive: GI50 (HOP-62 NSCLC) > 100 µM | GI50 (SW-620 colon) 2.4 µM | GI50 (SNB-75 CNS) > 23.5 µM | GI50 (NCI-H460 lung) > 100 µM | GI50 (SNB-19 CNS) > 77.6 µM | GI50 (DU-145 prostate) > 100 µM | GI50 (EKVX NSCLC) > 100 µM | GI50 (NCI-H23 lung) 3.13 µM | GI50 (NCI/ADR-RES ovarian) > 31.8 µM | GI50 (SK-MEL-28 melanoma) > 100 µM | GI50 (A549 NSCLC) > 100 µM | GI50 (SF-295 CNS) > 100 µM | GI50 (K-562 leukemia) 2.94 µM | GI50 (MCF7 breast) 3.78 µM | GI50 (ACHN renal) 1.74 µM | GI50 (HCC-2998 colon) > 100 µM | GI50 (OVCAR-4 ovarian) > 100 µM | GI50 (SF-539 CNS) > 100 µM | GI50 (786-0 renal) > 100 µM | GI50 (OVCAR-3 ovarian) > 100 µM | GI50 (MOLT-4 leukemia) 4.61 µM | GI50 (A498 renal) > 100 µM | GI50 (MDA-MB-435) 13.7 µM | GI50 (U251 CNS) 16.9 µM | GI50 (NCI-H226 lung) > 20.2 µM
3.13 µM: TGI (ACHN renal)
> 100 µM: TGI (HOP-62 NSCLC) | TGI (SNB-75 CNS) | TGI (NCI-H460 lung) | TGI (SNB-19 CNS) | TGI (UACC-62 melanoma) | TGI (DU-145 prostate) | TGI (EKVX NSCLC) | TGI (NCI-H23 lung) | TGI (NCI/ADR-RES ovarian) | TGI (SK-MEL-28 melanoma) | TGI (A549 NSCLC) | TGI (SF-295 CNS) | TGI (K-562 leukemia) | TGI (MCF7 breast) | TGI (HCC-2998 colon) | TGI (OVCAR-4 ovarian) | TGI (SF-539 CNS) | TGI (786-0 renal) | TGI (OVCAR-3 ovarian) | TGI (MOLT-4 leukemia) | TGI (A498 renal) | TGI (MDA-MB-435) | TGI (U251 CNS) | TGI (NCI-H226 lung)
